In patent US12077503B2, “Substituted cyclic amides and their use as herbicides” (FMC CORPORATION, priority 2015, dated 2024):

Legend:
Assay type in all cases: in vivo
[1] = tested on: barnyardgrass (Echinochloa crus-galli); assay: Test A postemergence; details: postemergence; for Barnyardgrass plant response rating: 125 g ai/ha, visual injury rating on 0 to 100 scale (0 no effect, 100 complete control), approx. 10 d; for Plant response rating, Barnyardgrass: 500 g ai/ha, 0 to 100 scale, 0 no effect, 100 complete control
Procedure, shortened: (§1)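 Greenhouse, ~10 d after spray; visual injury vs untreated controls, 0 = no effect, 100 = complete control. Preemergence: directed soil spray over planted seeds. Postemergence: plants 2–10 cm, 1–2 leaf stage. Loam/sand blend. Compound in non-phytotoxic solvent with surfactant.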

[2] = tested on: blackgrass (Alopecurus myosuroides); assay: Test A postemergence; details: postemergence; for Blackgrass plant response rating: 125 g ai/ha, visual injury rating on 0 to 100 scale (0 no effect, 100 complete control), approx. 10 d; for Plant response rating, Blackgrass: 500 g ai/ha, 0 to 100 scale, 0 no effect, 100 complete control
Procedure, shortened: as §1

[3] = tested on: ryegrass, Italian (Italian ryegrass, Lolium multiflorum); assay: Test A postemergence; details: postemergence; for Ryegrass, Italian plant response rating: 125 g ai/ha, visual injury rating on 0 to 100 scale (0 no effect, 100 complete control), approx. 10 d; for Plant response rating, Ryegrass, Italian: 500 g ai/ha, 0 to 100 scale, 0 no effect, 100 complete control
Procedure, shortened: as §1

[4] = tested on: Galium (catchweed bedstraw, Galium aparine); assay: Test A postemergence; details: postemergence; for Galium plant response rating: 125 g ai/ha, visual injury rating on 0 to 100 scale (0 no effect, 100 complete control), approx. 10 d; for Plant response rating, Galium: 500 g ai/ha, 0 to 100 scale, 0 no effect, 100 complete control
Procedure, shortened: as §1

[5] = tested on: giant foxtail (Setaria faberii); assay: Test A postemergence; details: postemergence; for Foxtail, Giant plant response rating: 125 g ai/ha, visual injury rating on 0 to 100 scale (0 no effect, 100 complete control), approx. 10 d; for Plant response rating, Foxtail, Giant: 500 g ai/ha, 0 to 100 scale, 0 no effect, 100 complete control
Procedure, shortened: as §1

[6] = tested on: wheat (Triticum aestivum); assay: Test A postemergence; details: postemergence; for Wheat plant response rating: 125 g ai/ha, visual injury rating on 0 to 100 scale (0 no effect, 100 complete control), approx. 10 d; for Plant response rating, Wheat: 500 g ai/ha, 0 to 100 scale, 0 no effect, 100 complete control
Procedure, shortened: as §1

[7] = tested on: ragweed (common ragweed, Ambrosia elatior); assay: Test A postemergence; details: postemergence; for Ragweed plant response rating: 125 g ai/ha, visual injury rating on 0 to 100 scale (0 no effect, 100 complete control), approx. 10 d; for Plant response rating, Ragweed: 500 g ai/ha, 0 to 100 scale, 0 no effect, 100 complete control
Procedure, shortened: as §1

[8] = tested on: corn (Zea mays); assay: Test A postemergence; details: postemergence; for Corn plant response rating: 125 g ai/ha, visual injury rating on 0 to 100 scale (0 no effect, 100 complete control), approx. 10 d; for Plant response rating, Corn: 500 g ai/ha, 0 to 100 scale, 0 no effect, 100 complete control
Procedure, shortened: as §1

[9] = tested on: Kochia (Kochia scoparia); assay: Test A postemergence; details: postemergence; for Kochia plant response rating: 125 g ai/ha, visual injury rating on 0 to 100 scale (0 no effect, 100 complete control), approx. 10 d; for Plant response rating, Kochia: 500 g ai/ha, 0 to 100 scale, 0 no effect, 100 complete control
Procedure, shortened: as §1

[10] = tested on: pigweed (Amaranthus retroflexus); assay: Test A postemergence; details: postemergence; for Pigweed plant response rating: 125 g ai/ha, visual injury rating on 0 to 100 scale (0 no effect, 100 complete control), approx. 10 d; for Plant response rating, Pigweed: 500 g ai/ha, 0 to 100 scale, 0 no effect, 100 complete control
Procedure, shortened: as §1

[11] = tested on: barnyardgrass (Echinochloa crus-galli); assay: Test A preemergence; details: for Plant response rating, Barnyardgrass: 125 g ai/ha, preemergence, 0 to 100 scale (0 no effect, 100 complete control); for Barnyardgrass plant response rating (0 to 100 scale, 0 is no effect, 100 is complete control): Preemergence, 500 g ai/ha, visual injury approx. 10 d
Procedure, shortened: as §1

[12] = tested on: ryegrass, Italian (Italian ryegrass, Lolium multiflorum); assay: Test A preemergence; details: for Plant response rating, Ryegrass, Italian: 125 g ai/ha, preemergence, 0 to 100 scale (0 no effect, 100 complete control); for Ryegrass, Italian plant response rating (0 to 100 scale, 0 is no effect, 100 is complete control): Preemergence, 500 g ai/ha, visual injury approx. 10 d
Procedure, shortened: as §1

[13] = tested on: giant foxtail (Setaria faberii); assay: Test A preemergence; details: for Plant response rating, Foxtail, Giant: 125 g ai/ha, preemergence, 0 to 100 scale (0 no effect, 100 complete control); for Foxtail, Giant plant response rating (0 to 100 scale, 0 is no effect, 100 is complete control): Preemergence, 500 g ai/ha, visual injury approx. 10 d
Procedure, shortened: as §1

[14] = tested on: ragweed (common ragweed, Ambrosia elatior); assay: Test A preemergence; details: for Plant response rating, Ragweed: 125 g ai/ha, preemergence, 0 to 100 scale (0 no effect, 100 complete control); for Ragweed plant response rating (0 to 100 scale, 0 is no effect, 100 is complete control): Preemergence, 500 g ai/ha, visual injury approx. 10 d
Procedure, shortened: as §1

[15] = tested on: Kochia (Kochia scoparia); assay: Test A preemergence; details: for Plant response rating, Kochia: 125 g ai/ha, preemergence, 0 to 100 scale (0 no effect, 100 complete control); for Kochia plant response rating (0 to 100 scale, 0 is no effect, 100 is complete control): Preemergence, 500 g ai/ha, visual injury approx. 10 d
Procedure, shortened: as §1

[16] = tested on: pigweed (Amaranthus retroflexus); assay: Test A preemergence; details: for Plant response rating, Pigweed: 125 g ai/ha, preemergence, 0 to 100 scale (0 no effect, 100 complete control); for Pigweed plant response rating (0 to 100 scale, 0 is no effect, 100 is complete control): Preemergence, 500 g ai/ha, visual injury approx. 10 d
[17] = tested on: barnyardgrass (Echinochloa crus-galli); assay: Test B flooded paddy test; details: Flood, 250 g ai/ha; 0 to 100 scale where 0 is no effect and 100 is complete control; 13 to 15 d
Procedure, shortened: (§2)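 Evaluation by eye, against controls, occurred 13–15 d post-treatment in a greenhouse, using a 0 (no effect) to 100 (complete control) scale. Application was into the paddy water, 3 cm deep over the soil, on 2-leaf plants.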

[18] = tested on: rice (Oryra sativa); assay: Test B flooded paddy test; details: Flood, 250 g ai/ha; 0 to 100 scale where 0 is no effect and 100 is complete control; 13 to 15 d
Procedure, shortened: as §2

[19] = tested on: ducksalad (Heteranthera limosa); assay: Test B flooded paddy test; details: Flood, 250 g ai/ha; 0 to 100 scale where 0 is no effect and 100 is complete control; 13 to 15 d
Procedure, shortened: as §2

[20] = tested on: sedge, umbrella (small-flower umbrella sedge, Cyperus difformis); assay: Test B flooded paddy test; details: Flood, 250 g ai/ha; 0 to 100 scale where 0 is no effect and 100 is complete control; 13 to 15 d
Procedure, shortened: as §2

SMILES: CN1CC(c2ccc(F)cc2)C(C(=O)Nc2ccc(F)cc2F)C1=O (stereo not drawn) [Compound 440]
- Barnyardgrass plant response rating [1]: 90
- Plant response rating, Barnyardgrass [1]: 90
- Blackgrass plant response rating [2]: 30
- Plant response rating, Blackgrass [2]: 50
- Ryegrass, Italian plant response rating [3]: 0
- Plant response rating, Ryegrass, Italian [3]: 60
- Galium plant response rating [4]: 40
- Plant response rating, Galium [4]: 40
- Foxtail, Giant plant response rating [5]: 90
- Plant response rating, Foxtail, Giant [5]: 90
- Wheat plant response rating [6]: 0
- Plant response rating, Wheat [6]: 50
- Ragweed plant response rating [7]: 0
- Plant response rating, Ragweed [7]: 0
- Corn plant response rating [8]: 0
- Plant response rating, Corn [8]: 20
- Kochia plant response rating [9]: 30
- Plant response rating, Kochia [9]: 40
- Pigweed plant response rating [10]: 0
- Plant response rating, Pigweed [10]: 20
- Plant response rating, Barnyardgrass [11]: 90
- Barnyardgrass plant response rating (0 to 100 scale, 0 is no effect, 100 is complete control) [11]: 100
- Plant response rating, Ryegrass, Italian [12]: 0
- Ryegrass, Italian plant response rating (0 to 100 scale, 0 is no effect, 100 is complete control) [12]: 50
- Plant response rating, Foxtail, Giant [13]: 90
- Foxtail, Giant plant response rating (0 to 100 scale, 0 is no effect, 100 is complete control) [13]: 100
- Plant response rating, Ragweed [14]: 20
- Ragweed plant response rating (0 to 100 scale, 0 is no effect, 100 is complete control) [14]: 40
- Plant response rating, Kochia [15]: 60
- Kochia plant response rating (0 to 100 scale, 0 is no effect, 100 is complete control) [15]: 70
- Plant response rating, Pigweed [16]: 20
- Pigweed plant response rating (0 to 100 scale, 0 is no effect, 100 is complete control) [16]: 80
- Plant response rating, Barnyardgrass [17]: 70
- Plant response rating, Rice [18]: 0
- Plant response rating, Ducksalad [19]: 95
- Plant response rating, Sedge, Umbrella [20]: 0

SMILES: CN1CC(c2ccc3c(c2)OC(F)(F)O3)C(C(=O)Nc2cccc(F)c2F)C1=O (stereo not drawn) [Compound 442]
- Barnyardgrass plant response rating [1]: 80
- Plant response rating, Barnyardgrass [1]: 90
- Blackgrass plant response rating [2]: 60
- Plant response rating, Blackgrass [2]: 70
- Ryegrass, Italian plant response rating [3]: 60
- Plant response rating, Ryegrass, Italian [3]: 80
- Galium plant response rating [4]: 60
- Plant response rating, Galium [4]: 60
- Foxtail, Giant plant response rating [5]: 80
- Plant response rating, Foxtail, Giant [5]: 80
- Wheat plant response rating [6]: 40
- Plant response rating, Wheat [6]: 70
- Ragweed plant response rating [7]: 0
- Plant response rating, Ragweed [7]: 40
- Corn plant response rating [8]: 50
- Plant response rating, Corn [8]: 70
- Kochia plant response rating [9]: 20
- Plant response rating, Kochia [9]: 60
- Pigweed plant response rating [10]: 60
- Plant response rating, Pigweed [10]: 70
- Plant response rating, Barnyardgrass [11]: 90
- Barnyardgrass plant response rating (0 to 100 scale, 0 is no effect, 100 is complete control) [11]: 90
- Plant response rating, Ryegrass, Italian [12]: 60
- Ryegrass, Italian plant response rating (0 to 100 scale, 0 is no effect, 100 is complete control) [12]: 80
- Plant response rating, Foxtail, Giant [13]: 90
- Foxtail, Giant plant response rating (0 to 100 scale, 0 is no effect, 100 is complete control) [13]: 90
- Plant response rating, Ragweed [14]: 20
- Ragweed plant response rating (0 to 100 scale, 0 is no effect, 100 is complete control) [14]: 60
- Plant response rating, Kochia [15]: 80
- Kochia plant response rating (0 to 100 scale, 0 is no effect, 100 is complete control) [15]: 90
- Plant response rating, Pigweed [16]: 70
- Pigweed plant response rating (0 to 100 scale, 0 is no effect, 100 is complete control) [16]: 80
- Plant response rating, Barnyardgrass [17]: 75
- Plant response rating, Rice [18]: 0
- Plant response rating, Ducksalad [19]: 100
- Plant response rating, Sedge, Umbrella [20]: 0

SMILES: CN1CC(c2ccc3c(c2)OC(F)(F)O3)C(C(=O)Nc2ccccc2S(C)(=O)=O)C1=O (stereo not drawn) [Compound 443]
- Barnyardgrass plant response rating [1]: 80
- Plant response rating, Barnyardgrass [1]: 80
- Blackgrass plant response rating [2]: 60
- Plant response rating, Blackgrass [2]: 70
- Ryegrass, Italian plant response rating [3]: 30
- Plant response rating, Ryegrass, Italian [3]: 60
- Galium plant response rating [4]: 40
- Plant response rating, Galium [4]: 50
- Foxtail, Giant plant response rating [5]: 80
- Plant response rating, Foxtail, Giant [5]: 80
- Wheat plant response rating [6]: 40
- Plant response rating, Wheat [6]: 60
- Ragweed plant response rating [7]: 20
- Plant response rating, Ragweed [7]: 20
- Corn plant response rating [8]: 40
- Plant response rating, Corn [8]: 80
- Kochia plant response rating [9]: 20
- Plant response rating, Kochia [9]: 30
- Pigweed plant response rating [10]: 20
- Plant response rating, Pigweed [10]: 50
- Plant response rating, Barnyardgrass [11]: 90
- Barnyardgrass plant response rating (0 to 100 scale, 0 is no effect, 100 is complete control) [11]: 90
- Plant response rating, Ryegrass, Italian [12]: 40
- Ryegrass, Italian plant response rating (0 to 100 scale, 0 is no effect, 100 is complete control) [12]: 50
- Plant response rating, Foxtail, Giant [13]: 90
- Foxtail, Giant plant response rating (0 to 100 scale, 0 is no effect, 100 is complete control) [13]: 90
- Plant response rating, Ragweed [14]: 80
- Ragweed plant response rating (0 to 100 scale, 0 is no effect, 100 is complete control) [14]: 80
- Plant response rating, Kochia [15]: 30
- Kochia plant response rating (0 to 100 scale, 0 is no effect, 100 is complete control) [15]: 80
- Plant response rating, Pigweed [16]: 80
- Pigweed plant response rating (0 to 100 scale, 0 is no effect, 100 is complete control) [16]: 90
- Plant response rating, Barnyardgrass [17]: 70
- Plant response rating, Rice [18]: 0
- Plant response rating, Ducksalad [19]: 80
- Plant response rating, Sedge, Umbrella [20]: 0
